{"source": "paper PMC10108266", "about": "“Pharmacokinetic characteristics of golidocitinib, a highly selective JAK1 inhibitor, in healthy adult participants” (Frontiers in Immunology, 2023)", "key": {"[1]": {"assay": "JACKPOT2 multiple-ascending-dose plasma PK (once daily, 14 days)", "format": "in vivo, human", "conditions": "for Cmax / AUC(0-t) / Tmax: human, plasma, oral; for Cmax / AUC(0-t): geometric mean (CV%); for AUC(0-t): read-out: AUC0-24h; for Tmax: median (min, max)", "protocol": "A total of 42 and 24 healthy participants were enrolled in part A and part B, respectively. In part A, a total of 30 participants were randomized into 5 SAD cohorts (n = 6 per cohort) and received a single dose of golidocitinib at different dose levels or a matching placebo in a 4:2 ratio. In the food effect cohort, a total of 12 participants were enrolled and received the study drug under fasted or fed conditions, with a sequential design. The 50 mg dose was selected based on available safety data after the completion of the SAD cohorts, and also on the outcomes from PK/PD modeling for potential efficacious dose for autoimmune disease. On Day 1, participants took a single dose of golidocitinib under fast condition. After a 14-day wash-out period, on Day 15, participants received another single dose of golidocitinib immediately after a standard high-fat meal. Food recipes and contents are consistent with that described in FDA Guidance for Food-Effect Bioavailability studies ([10]). For the fed condition, keeping fasted for at least 10 hours, participants started ingestion of high-fat meal 30 minutes prior to administration of golidocitinib. They had to finish the meal within 30 minutes or less, and no food was allowed for at least 4 hours post-dose. In part B, a total of 24 participants were randomized into 3 MAD cohorts, with 8 in each cohort (active:placebo = 6:2). In these cohorts, participants received golidocitinib at different dose levels or placebo once daily dosing for 14 days. Dose escalation was based on available PK and safety data in the previous cohorts.\nIn the SAD cohorts, serial blood samples were obtained on Day 1 at pre-dose, and at 0.5, 1, 1.5, 2, 3, 4, 6, 10, 14, 24 (Day 2), 48 (Day 3), 72 (Day 4), 120 (Day 6), 168 (Day 8) and 216 (Day 10) hours post-dose for plasma PK analysis. A similar sampling schedule was undertaken for the MAD cohorts on Day 1 and Day 14, with additional trough samples obtained on Days 5, Day 8, and Day 11. In the MAD cohorts, urine samples were collected on Day 14 during the collection intervals of 0-4, 4-10, and 10-24 hours following the last dose for urine PK analysis. Plasma and urine samples were analyzed by Frontage Laboratories Inc. (New Jersey, USA) using a validated LC/MS/MS bioanalytical method to determine golidocitinib concentrations. Cross validation in plasma was successful between Frontage Laboratories Inc. (New Jersey, USA) and Frontage Laboratories Inc. (Shanghai) using clinical samples and spiked quality control samples.\nNon-compartmental PK analysis for golidocitinib concentrations was performed using Phoenix WinNonlin (Certara USA Inc., version 8.1).\nDose proportionality was concluded if the 90% confidence interval for the ratio of dose-normalized, geometric mean values (Rdnm) was contained completely within the range of 0.8 - 1.25 ([11], [12])."}, "[2]": {"assay": "JACKPOT3 single-ascending-dose plasma PK, healthy Chinese participants", "format": "in vivo, human", "conditions": "for AUC(0-inf) / Cmax / Vd/F / half-life / Tmax: human, plasma; for AUC(0-inf) / Cmax: geometric mean (CV%)", "description": "This was a SAD study in healthy adult Asian participants, with a study design similar to the SAD cohorts of JACKPOT2 study. […] A total of 32 healthy participants were randomized to receive a single dose of golidocitinib or matched placebo (6:2).\nAfter single oral administration, serial blood samples were obtained on Day 1 at pre-dose, and at 0.5, 1, 1.5, 2, 3, 4, 6, 8, 12, 24 (Day 2), 48 (Day 3), 72 (Day 4), 120 (Day 6), 168 (Day 8) and 216 (Day 10) hours post-dose for plasma PK analysis. Urine samples were collected during the collection intervals of 0-4, 4-10, 10-24, 24-48, 48-72, 72-96, 96-120, 120-144, and 144-168 hours following a single oral dose of 100 mg for urine PK analysis. Validated LC/MS methods were used for the determination of golidocitinib in human plasma and urine by Frontage Laboratories Inc. (Shanghai). This method was cross validated by Frontage Laboratories Inc. (New Jersey, USA) and met the acceptance criteria."}, "[3]": {"system": "CYP3A4/5 and flavin-containing monooxygenase enzyme (FMO)", "assay": "Enzymatic systems implicated in metabolism", "format": "in vitro ADME"}, "[4]": {"conditions": "25 mg, 25 mg once daily, Day 14"}, "[5]": {"conditions": "50 mg, 50 mg once daily, Day 14"}, "[6]": {"conditions": "100 mg, 100 mg once daily, Day 1"}, "[7]": {"conditions": "100 mg, 100 mg once daily, Day 14"}}, "note": "Read-outs that look alike come from different tables or passages of the source.", "data": [{"smiles": "COc1nn(C)cc1Nc1nccc(-c2c[nH]c3c(NC(=O)[C@@H](C)N4CCN(C)CC4)cccc23)n1", "note": "[golidocitinib, (2R)-N-[3-[2-[(3-Methoxy-1-methyl-pyrazol-4-yl)amino]pyrimidin-4-yl]-1H-indol-7-yl]-2-(4-methylpiperazin-1-yl)propenamide]", "values": [{"measurement": "Cmax", "setting": "[1]; 25 mg, 25 mg once daily, Day 1", "result": 33.8, "unit": "ng/mL"}, {"measurement": "AUC(0-t)", "setting": "[1]; 25 mg, 25 mg once daily, Day 1", "result": 536, "unit": "ng·h/mL"}, {"measurement": "Tmax", "setting": "[1]; 25 mg, 25 mg once daily, Day 1", "result": 6, "unit": "h"}, {"measurement": "Cmax", "setting": "[1]; [4]", "result": 83.9, "unit": "ng/mL"}, {"measurement": "AUC(0-t)", "setting": "[1]; [4]", "result": 1530, "unit": "ng·h/mL"}, {"measurement": "Tmax", "setting": "[1]; [4]", "result": 6, "unit": "h"}, {"measurement": "Cmax", "setting": "[1]; 50 mg, 50 mg once daily, Day 1", "result": 62.1, "unit": "ng/mL"}, {"measurement": "AUC(0-t)", "setting": "[1]; 50 mg, 50 mg once daily, Day 1", "result": 1020, "unit": "ng·h/mL"}, {"measurement": "Tmax", "setting": "[1]; 50 mg, 50 mg once daily, Day 1", "result": 6, "unit": "h"}, {"measurement": "Cmax", "setting": "[1]; [5]", "result": 169, "unit": "ng/mL"}, {"measurement": "AUC(0-t)", "setting": "[1]; [5]", "result": 3190, "unit": "ng·h/mL"}, {"measurement": "Tmax", "setting": "[1]; [5]", "result": 6, "unit": "h"}, {"measurement": "Cmax", "setting": "[1]; [6]", "result": 149, "unit": "ng/mL"}, {"measurement": "AUC(0-t)", "setting": "[1]; [6]", "result": 2490, "unit": "ng·h/mL"}, {"measurement": "Tmax", "setting": "[1]; [6]", "result": 4, "unit": "h"}, {"measurement": "Cmax", "setting": "[1]; [7]", "result": 375, "unit": "ng/mL"}, {"measurement": "AUC(0-t)", "setting": "[1]; [7]", "result": 7190, "unit": "ng·h/mL"}, {"measurement": "Tmax", "setting": "[1]; [7]", "result": 6, "unit": "h"}, {"measurement": "increase of Cmax and AUC0-24hr on day 14 compared to day 1 (accumulation)", "setting": "[1]; multiple once-daily dosing", "result": "2-3 folds"}, {"measurement": "time to steady-state plasma concentrations", "setting": "[1]; once-daily dosing", "result": "≤ 14", "unit": "days"}, {"measurement": "AUC(0-inf)", "setting": "[2]; oral, single dose 25 mg", "result": 1230, "unit": "ng·h/mL"}, {"measurement": "Cmax", "setting": "[2]; oral, single dose 25 mg", "result": 40.8, "unit": "ng/mL"}, {"measurement": "Vd/F", "setting": "[2]; oral, single dose 25 mg, mean (SD), read-out: Vz/F", "result": 1040, "unit": "L"}, {"measurement": "half-life", "setting": "[2]; oral, single dose 25 mg, median (min, max), read-out: t1/2 (converted)", "result": 38, "unit": "h"}, {"measurement": "Tmax", "setting": "[2]; oral, single dose 25 mg, median (min, max), read-out: tmax", "result": 3, "unit": "h"}, {"measurement": "AUC(0-inf)", "setting": "[2]; oral, single dose 50 mg", "result": 2370, "unit": "ng·h/mL"}, {"measurement": "Cmax", "setting": "[2]; oral, single dose 50 mg", "result": 75, "unit": "ng/mL"}, {"measurement": "Vd/F", "setting": "[2]; oral, single dose 50 mg, mean (SD), read-out: Vz/F", "result": 1160, "unit": "L"}, {"measurement": "half-life", "setting": "[2]; oral, single dose 50 mg, median (min, max), read-out: t1/2 (converted)", "result": 39.1, "unit": "h"}, {"measurement": "Tmax", "setting": "[2]; oral, single dose 50 mg, median (min, max), read-out: tmax", "result": 2, "unit": "h"}, {"measurement": "AUC(0-inf)", "setting": "[2]; oral, single dose 100 mg", "result": 4740, "unit": "ng·h/mL"}, {"measurement": "Cmax", "setting": "[2]; oral, single dose 100 mg", "result": 184, "unit": "ng/mL"}, {"measurement": "Vd/F", "setting": "[2]; oral, single dose 100 mg, mean (SD), read-out: Vz/F", "result": 826, "unit": "L"}, {"measurement": "half-life", "setting": "[2]; oral, single dose 100 mg, median (min, max), read-out: t1/2 (converted)", "result": 28.3, "unit": "h"}, {"measurement": "Tmax", "setting": "[2]; oral, single dose 100 mg, median (min, max), read-out: tmax", "result": 2, "unit": "h"}, {"measurement": "AUC(0-inf)", "setting": "[2]; oral, single dose 150 mg", "result": 8340, "unit": "ng·h/mL"}, {"measurement": "Cmax", "setting": "[2]; oral, single dose 150 mg", "result": 280, "unit": "ng/mL"}, {"measurement": "Vd/F", "setting": "[2]; oral, single dose 150 mg, mean (SD), read-out: Vz/F", "result": 1210, "unit": "L"}, {"measurement": "half-life", "setting": "[2]; oral, single dose 150 mg, median (min, max), read-out: t1/2 (converted)", "result": 46.7, "unit": "h"}, {"measurement": "Tmax", "setting": "[2]; oral, single dose 150 mg, median (min, max), read-out: tmax", "result": 1.75, "unit": "h"}, {"measurement": "Vd/F", "setting": "[2]; single oral administration, Chinese participants, read-out: mean Vz/F", "result": "826 to 1210", "unit": "L"}, {"measurement": "half-life", "setting": "[2]; single oral administration, across the dose range, Chinese participants, read-out: median terminal half-life (t1/2)", "result": "28.3 to 46.7", "unit": "h"}, {"measurement": "Tmax", "setting": "[2]; single oral administration, across the dose range, Chinese participants, read-out: median tmax", "result": "1.75 to 3", "unit": "h"}, {"measurement": "CL/F", "setting": "[2]; single dose 50 mg, mean (SD)", "result": "21.2 (13.1) L/hr"}, {"measurement": "CL/F", "setting": "[2]; single dose 100 mg, mean (SD)", "result": "21.4 (16.5) L/hr"}, {"measurement": "CL/F", "setting": "[2]; single dose 150 mg, mean (SD)", "result": "18.1 (14.2) L/hr"}, {"measurement": "enzymatic systems implicated in the metabolism", "setting": "[3]", "result": "CYP3A4/5 and flavin-containing monooxygenase enzyme (FMO)"}]}]}
